Results from US10821079B2, “PKC activators and combinations thereof” (Cognitive Research Enterprises, Inc., priority 2011, dated 2020).
“Also recorded” adds a separate entry of the source.

Columns and labels:
[1] = test system: phosphatidylserine (C2) binding site; assay: 3H-DCPLA-ME binding to rat brain slices with competitors, film autoradiography
Protocol: To determine the binding site of DCPLA-ME, ^3H-DCPLA-ME was incubated with rat brain slices in the absence and presence of known C1 and C2 competitors. More specifically, rat brain sections were fixed with formaldehyde, sliced, and incubated with (1) ^3H-DCPLA-ME alone; (2) ^3H-DCPLA-ME with DCPLA; (3) ^3H-DCPLA-ME with Phorbol ester; or (4) ^3H-DCPLA-ME and Bryostatin 1. After incubation, the slices were washed with a buffer made of 130 mM NaCl, 5 mM MgCl, 5 mM KCl, 1 mM EGTA, and 0.1% bovine serum albumin in 10 mM HEPES-NaOH, pH 7.4, dried, and analyzed with film-autoradiography.

[2] = target: T1, PKC-ε (Homo sapiens, UniProt Q02156); assay: Activation of purified PKC isozymes, radiometric: PKC-ε; assay type: biochemical
T1 sequence (Q02156 1-737): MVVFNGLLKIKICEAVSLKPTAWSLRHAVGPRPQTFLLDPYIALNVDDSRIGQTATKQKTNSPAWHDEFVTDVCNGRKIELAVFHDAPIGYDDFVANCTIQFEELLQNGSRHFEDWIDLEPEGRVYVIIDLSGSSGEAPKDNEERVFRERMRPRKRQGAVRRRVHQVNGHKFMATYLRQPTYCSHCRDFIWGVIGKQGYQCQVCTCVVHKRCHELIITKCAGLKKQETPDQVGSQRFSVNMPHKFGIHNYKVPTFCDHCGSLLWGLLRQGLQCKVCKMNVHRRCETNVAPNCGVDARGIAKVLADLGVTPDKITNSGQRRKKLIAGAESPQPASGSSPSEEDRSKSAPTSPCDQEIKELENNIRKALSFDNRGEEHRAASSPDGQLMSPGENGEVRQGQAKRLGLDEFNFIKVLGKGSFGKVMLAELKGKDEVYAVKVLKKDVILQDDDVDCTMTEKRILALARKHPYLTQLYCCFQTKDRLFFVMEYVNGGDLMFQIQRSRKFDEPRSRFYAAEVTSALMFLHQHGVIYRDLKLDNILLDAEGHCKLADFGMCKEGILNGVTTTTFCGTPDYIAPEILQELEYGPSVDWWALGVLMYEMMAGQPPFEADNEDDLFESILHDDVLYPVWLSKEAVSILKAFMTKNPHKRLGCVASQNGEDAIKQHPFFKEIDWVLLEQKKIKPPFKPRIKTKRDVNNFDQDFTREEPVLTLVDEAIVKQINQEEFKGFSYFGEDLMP
Protocol: (§1) To measure PKC, 10 μl of cell homogenate or purified PKC isoform was incubated for 15 min at 37° C. in the presence of 10 μM histones, 4.89 mM CaCl2, 1.2 μg/μl phosphatidyl-L-serine, 0.18 μg/μl 1,2-dioctanoyl-sn-glycerol, 10 mM MgCl2, 20 mM HEPES (pH 7.4), 0.8 mM EDTA, 4 mM EGTA, 4% glycerol, 8 μg/ml aprotinin, 8 μg/ml leupeptin, and 2 mM benzamidine. [γ32P]ATP (0.5 μCi) was added and 32P-phosphoprotein formation was measured by adsorption onto phosphocellulose as described previously. See Nelson et al., J. Neurochemistry, 1995, 65: 2350-2357.
(§2) PKC activity of each compound was measured in the absence of diacylglycerol and phosphatidylserine and PKC-δ and PKC-ε were measured in the absence of added EGTA and CaCl2, as described by Kanno et al., J. Lipid Res., 2006, 47: 1146-1156. Low concentrations of Ca^2+ were needed because high Ca^2+ can interact with the PKC phosphatidylserine binding site and prevents activation. […] To determine their PKC isoform specificity, the compounds were pre-incubated with purified isoforms of PKC for five minutes and the PKC activity was measured radiometrically.
The activation and PKC isozyme specificity of DCPLA-ethyl ester was measured following the procedures in Example 1(B) and (C), except that 9 ng of the purified isozyme was used and it was pre-incubated for 5 minutes at room temperature (FIG. 3). PKC-ε activation by DCPLA-tert-butyl ester and DCPLA-retinyl ester was measured in the same manner as DCPLA-ethyl ester (FIG. 3).
The EC50 values, PKC specificity, and activation for a select number of DCPLA esters was determined (see Table 1). EC50 values were determined by measuring the lowest concentration that activates by 50% of maximum activation. […] The specificity and activation of PKC by the various esters of DCPLA were calculated from the measurements of activation of PKC isozymes.

[3] = target: PKC-δ (Homo sapiens, UniProt Q05655); assay: Activation of purified PKC isozymes, radiometric: PKC-δ; assay type: biochemical
Protocol: To measure PKC activity, 10 μg of protein from either cytosol or membrane was incubated for 15 min at 37° C. in the presence of 10 μM histones, 4.89 mM CaCl2, 1.2 μg/μl phosphatidyl-L-serine, 0.18 μg/μl 1,2-dioctanoyl-sn-glycerol, 10 mM MgCl2, 20 mM HEPES (pH 7.4), 0.8 mM EDTA, 4 mM EGTA, 4% glycerol, 8 μg/ml aprotinin, 8 μg/ml leupeptin, 2 mM benzamidine, and 0.5 μCi of [γ-^32P]ATP. [^32P]Phosphoprotein formation was measured by adsorption onto phosphocellulose as described previously. See Nelson et al. (2009) J Biol Chem 284, 34514-34521. For measurements of activation by RA, PKC activity was measured in the absence of diacylglycerol (DAG) and phosphatidylserine, as described by Nelson et al. (2009) J Biol Chem 284, 34514-34521. PKC-δ and PKC-ε were measured in the absence of added EGTA and CaCl^2, as described by Kanno et al. (2006) J Lipid Res 47, 1146-1156. The enzyme was provided as a purified isozyme for in vitro experiments.
as §1, §2

Sequence of PKC-δ (Q05655 whole entry): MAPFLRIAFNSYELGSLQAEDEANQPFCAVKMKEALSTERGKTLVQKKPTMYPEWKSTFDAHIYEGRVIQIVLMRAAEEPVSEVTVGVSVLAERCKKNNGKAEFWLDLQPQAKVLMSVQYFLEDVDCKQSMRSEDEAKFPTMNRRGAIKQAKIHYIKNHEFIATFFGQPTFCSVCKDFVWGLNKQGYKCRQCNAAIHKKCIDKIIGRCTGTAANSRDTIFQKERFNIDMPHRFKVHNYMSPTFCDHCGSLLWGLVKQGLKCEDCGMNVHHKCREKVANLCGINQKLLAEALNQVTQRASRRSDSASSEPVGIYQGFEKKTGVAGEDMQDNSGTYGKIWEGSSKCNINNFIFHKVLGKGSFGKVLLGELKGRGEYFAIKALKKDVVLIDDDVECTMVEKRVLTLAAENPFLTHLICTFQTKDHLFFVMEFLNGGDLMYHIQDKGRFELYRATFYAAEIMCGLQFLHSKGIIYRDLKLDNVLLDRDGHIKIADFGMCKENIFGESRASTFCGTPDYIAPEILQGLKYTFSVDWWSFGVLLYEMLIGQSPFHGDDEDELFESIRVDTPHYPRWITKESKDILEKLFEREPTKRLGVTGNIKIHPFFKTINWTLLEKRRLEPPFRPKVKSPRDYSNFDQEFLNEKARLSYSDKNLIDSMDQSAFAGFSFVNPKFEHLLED

PKC-ε activation at peak [2] | concentration range activating PKC-ε by more than 50% [2] | Specificity ε/α ([2]; Activation of PKC-ε ÷ activation or inhibition of PKCα at 3 × EC50) | PKC-ε activation (in words) [2] | SMILES | 3H-DCPLA-ME binding, 30 nM competitor [1] | 3H-DCPLA-ME binding, 1 μM competitor [1] | effect on PKC-δ (in words) [3]
 |  |  |  | CCC/C=C/C=C/C(=O)O[C@H]1/C(=C/C(=O)OC)C[C@H]2C[C@H]([C@@H](C)O)OC(=O)C[C@H](O)C[C@@H]3C[C@H](OC(C)=O)C(C)(C)C(O)(C[C@@H]4C/C(=C/C(=O)OC)C[C@H](/C=C/C(C)(C)[C@]1(O)O2)O4)O3 [Bryostatin-1] | 100% | 77% | 
up to 190 % of control | 0.01 to 10 µM | 12.1 |  | CCCCCC1CC1CC1CC1CCCCCCCC(=O)OC (stereo not shown) [DCPLA-ME, methyl 8-(2-((2-pentylcyclopropyl)methyl)cyclopropyl)octanoate] | 64% | 37% | did not have a major effect; also recorded: less inhibitory effect on PKC-δ than DHA-CP6 and DCPLA
 |  |  | not activated | CC1=C(/C=C/C(C)=C/C=C/C(C)=C/C(=O)O)C(C)(C)CCC1 [RA, All-trans retinoic acid] |  |  | not activated
